Columns and labels:
Type in all cases: cell-based
[1] = system: apoE expression in human CCF-STTG1 astrocytoma cells; test: ApoE ELISA on conditioned medium of human CCF-STTG1 astrocytoma cells; conditions: 10 μM compound, 24 hours; for ApoE (ng/ml) Normalized for Cell Count and Vehicle Treatment: normalized to DMSO treated cells
Description: The triarylmethyl amine compounds, including the ones shown in TABLE 1, were tested for biological effects on mammalian cells in an ELISA, an assay well-known in the art. […] The ELISA technique involves immobilizing an apoE-specific capture antibody to a 96-well plate, addition of sample (conditioned medium from astrocytoma cells treated with the compound for 24 hours), and detection of the bound apoE using a second apoE-specific biotinylated antibody and streptavidin-HRP.
The Mabtech ELISA kit detects the presence of three apoE isoforms: apoE2, apoE3, and apoE4.
All triarylmethyl amine compounds listed in Table 1 were individually dissolved in DMSO at a stock concentration of 10 mM and individually tested. For ELISA's, 1.6×10^4 cells/96-well were grown for 1 day in RPMI, followed by a 24 hour equilibration in serum-free Opti-MEM (Life Technologies). Treatments were carried out in quadruplicate with 100 μL of fresh Opti-MEM containing 10 μM of compound or vehicle (0.1% DMSO) for 24 hours. Conditioned medium from these samples were then diluted 2-fold with incubation buffer (PBS+0.05% Tween-20+0.1% BSA) and analyzed with a human apoE HRP ELISA kit (Mabtech) according to the manufacturer's protocol. ApoE concentration in the sample was calculated based on a standard curve derived using known amounts of purified apoE supplied with the kit. The cells in the 96-well plates were used to determine the total cell number using CyQUANT reagent (Life Technologies).
The astrocytoma cells were treated for 24 hours with a 10 μM concentration of each of the individual 37 compounds listed in Table 1.

[2] = system: apoE expression in human HepG2 liver cells; test: ApoE ELISA on conditioned medium of human HepG2 liver cells; conditions: 10 μM compound, 24 hours, normalized to DMSO treated wells
Description: To obtain the data shown in Table 4, the human HepG2 liver cells (ATCC, HB-8065 were maintained in RPMI medium (Mediatech) supplemented with 10 mM HEPES, 1 mM sodium pyruvate, 4.5 g/L glucose, 1% penicillin/streptomycin, and 10% bovine growth serum (HyClone) at 37° C. with 5% CO2
Compound Nos. 13, 31, 33, 35 or 36—as listed in Table 1—were individually dissolved in DMSO at a stock concentration of 10 mM and individually tested. For ELISA's, 1.6×10^4 cells/96-well were grown for 1 day in RPMI, followed by a 24 hour equilibration in serum-free Opti-MEM (Life Technologies). Treatments were carried out in quadruplicate with 100 μL of fresh Opti-MEM containing 10 μM of compound or vehicle (0.1% DMSO) for 24 hours. Conditioned medium from these samples were then diluted 2-fold with incubation buffer (PBS+0.05% Tween-20+0.1% BSA) and analyzed with a human apoE HRP ELISA kit (Mabtech) according to the manufacturer's protocol.
A standard curve was used to derive sample apoE concentrations. The cells in the 96-well plates were used to determine the total cell number using CyQUANT reagent (Life Technologies). Sample apoE concentrations were adjusted for total cell number and then normalized to DMSO treated wells. Results for each set of compounds tested in parallel (n=3) were analyzed by a one-tailed t-test.
The data in Table 3 were obtained by using an apoE ELISA assay to monitor human HepG2 cell production of apoE after the HepG2 cells were treated with Compound Nos. 13, 31, 33, 35 and 36, as listed on Table 1. The HepG2 liver cells were treated for 24 hours with a 10 μM concentration of each of Compound Nos. 13, 31, 33, 35 and 36, as listed on Table 1.

[3] = system: apoE mRNA in CCF-STTG1 human astrocytoma cells; test: ApoE mRNA qPCR in CCF-STTG1 astrocytoma cells; set-up: unit not given here; conditions: 24 hours in OptiMEM, HPRT1 and β-actin as housekeeping genes
From the text: (§1) Quantitative reverse transcription polymerase chain reaction (qPCR) is a laboratory technique used to amplify and quantify the steady-state levels of apoE messenger RNA (mRNA) by converting the copy DNA (cDNA). The targeted DNA molecule quantity can be determined as a relative amount when normalized to housekeeping genes. For qPCR, reverse transcription is used to quantify the amount of mRNA produced through the balance between transcription rate and degradation rates. The amount of mRNA available is the one factor which can affect the overall protein expression. Quantification of the cDNA produced during reverse transcription of the mRNA may be accomplished by detecting the fluorescent markers, such as fluorophores, that selectively hybridize with the DNA target.
(§2) The CCF-STTG1 (ATCC, CRL-1718) human astrocytoma cells were treated with one of the selected triarylmethyl amine compounds for 24 hours in OptiMEM. The selected triarylmethyl amine compounds were individually dissolved in DMSO at a stock concentration of 10 mM and individually tested. Total RNA was extracted using the RNeasy Plus Mini Kit (Qiagen). Genomic DNA (gDNA) was removed by centrifugation through gDNA eliminator spin columns included with the kit. Samples of total RNA were reverse transcribed following instructions in the Superscript III first strand synthesis kit (Life Technologies). ApoE, HPRT1, and β-actin cDNA levels were quantified by TaqMan multiplex quantitative PCR using a CFX96 Real-Time PCR Detection System (BioRad). Reactions were carried out with SensiMix II Probe Master Mix (Bioline) in a 20 μL total volume containing 5-30 ng of cDNA template. Fluorescent labels and primer/probe concentrations were as follows: apoE (5′-FAM, 600 nM/300 nM), HPRT1 (5′-TEX-615, 100 nM/25 nM), and β-actin (5′-Cy5, 100 nM/25 nM). ZEN double quenched probes (Integrated DNA technologies) were used for all apoE reactions. The reactions were performed in triplicate and the results were analyzed using qbasePLUS (Biogazelle) with HPRT1 and β-actin as housekeeping genes.

[4] = system: apoE mRNA in HepG2 human liver cells; test: ApoE mRNA qPCR in HepG2 liver cells; conditions: 24 hours in OptiMEM, HPRT1 and β-actin as housekeeping genes
From the text: as §1
as §2, with “HepG2” for “CCF-STTG1”, “HB-8065)” for “CRL-1718)”, “liver” for “astrocytoma”, “μl” for “μL”

[5] = system: apoE mRNA in H4 human neuroglioma cells; test: ApoE mRNA qPCR in H4 neuroglioma cells; set-up: unit not given here; conditions: 24 hours in OptiMEM, HPRT1 and β-actin as housekeeping genes
From the text: as §1
The selected triarylmethyl amine compounds were individually dissolved in DMSO at a stock concentration of 10 mM and individually tested. Total RNA was extracted using the RNeasy Plus Mini Kit (Qiagen). Genomic DNA (gDNA) was removed by centrifugation through gDNA eliminator spin columns included with the kit. Samples of total RNA were reverse transcribed following instructions in the Superscript III first strand synthesis kit (Life Technologies). ApoE, HPRT1, and β-actin cDNA levels were quantified by TaqMan multiplex quantitative PCR using a CFX96 Real-Time PCR Detection System (BioRad).

Compound	Inhibition Percentage of ApoE Expression [1]	ApoE (ng/ml) Normalized for Cell Count and Vehicle Treatment [1]	ApoE (ng/ml) Normalized for Cell Count and Vehicle Treatment [2]	ApoE (ng/ml) Normalized for Cell Count and Vehicle Treatment [3]	ApoE (ng/ml) Normalized for Cell Count and Vehicle Treatment [4]	Inhibition Percentage of ApoE Expression ([1]; listed as compound 33)	ApoE (ng/ml) Cell Count Normalized for Cell Count and Vehicle Treatment [5]	Inhibition Percentage of ApoE Expression ([1]; listed as compound 35)	Inhibition Percentage of ApoE Expression ([1]; listed as compound 36)	Inhibition Percentage of ApoE Expression ([1]; listed as compound 31)
CN(C)C(c1ccccc1)(c1ccccc1)c1ccccc1 [Compound 1]	8%	0.92 ng/mL								
c1ccc(C(NCC2CCCCC2)(c2ccccc2)c2ccccc2)cc1 [Compound 13, cyclohexylmethyl-trityl-amine]		0.49 ng/mL	1.03 ng/mL	1.10	1.16 ratio to vehicle					
COc1ccc(C(c2ccccc2)(c2ccccc2)N(C)C)cc1 [Compound 16]	35%	0.65 ng/mL								
CN(C)C(c1ccccc1)(c1ccccc1)c1ccc2ccccc2c1 [Compound 28]	35%	0.65 ng/mL								
c1ccc(C(c2ccccc2)(c2ccc3ccccc3c2)N2CCOCC2)cc1 [Compound 33, 4-(Naphthalen-2-yl-diphenyl-methyl)-morpholine]	46%	0.54 ng/mL	0.77 ng/mL	0.88	1.22 ratio to vehicle	about 46%	0.59			
CC(C)CNC(c1ccccc1)(c1ccccc1)c1ccc2ccccc2c1 [Compound 35, isobutyl-(naphthalen-2-yl-diphenyl-methyl)-amine]	50%	0.50 ng/mL	0.78 ng/mL	0.87	1.03 ratio to vehicle			about 50%		
CCN(CC)C(c1ccccc1)(c1ccccc1)c1ccc(OC)cc1 [Compound 17, Diethyl-[(4-methoxy-phenyl)-diphenyl-methyl]-amine]	17%	0.83 ng/mL								
CCC(C)NC(c1ccccc1)(c1ccccc1)c1ccc2ccccc2c1 (stereo not shown) [Compound 36, sec-butyl-(naphthalen-2-yl-diphenyl-methyl)-amine]	66%	0.34 ng/mL	0.81 ng/mL	0.85	0.93 ratio to vehicle				about 66%	
c1ccc(C(c2ccccc2)(c2ccc3ccccc3c2)N2CCCC2)cc1 [Compound 31, 1-(naphthalen-2-yl-diphenyl-methyl)-pyrrolidine]	49%	0.51 ng/mL	0.64 ng/mL	0.86	0.86 ratio to vehicle					about 49%
